Assay results as given in US10195156B2, “Compounds and compositions for intracellular delivery of agents” (ModernaTX, Inc., priority 2015, dated 2019).

Legend:
[1] = test system: modified luciferase expression; experiment: Expression of Luc in different organs (liver, lung, spleen, femur) 6 hours after intravenous administration; format: in vivo; settings: i.v., 0.5 mpk
Experimental: The efficacy of the nanoparticle compositions presented in Tables 1, 1a, 17-1, 19-1, 20-1 and 21-1 was further evaluated by measuring the expression of modified luciferase in the liver, lung, spleen, and femur upon administration of a given composition. Formulations were administered intravenously to mice (n=3) at a dosage of 0.5 mpk and bioluminescence measured after 6 hours. The standard MC3 formulation and a PBS control were also tested.

[2] = Encapsulation efficiency of RNA (QUANT-IT RIBOGREEN RNA assay); format: physicochemical
Summary of the method: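 Nanoparticle samples diluted to ~5 μg/mL RNA in TE buffer (pH 7.5), incubated with or without 2% Triton X-100 solution at 37 °C for 15 min, then RiboGreen added. Fluorescence read at ~480/520 nm, blank-subtracted; free RNA % = intact over Triton-disrupted signal.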

[3] = Particle size and polydispersity index of nanoparticle compositions (Zetasizer Nano ZS); format: physicochemical; settings: for particle size, rank within the named table (in words): comparison amongst compositions
Summary of the method: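 Particle size and PDI were measured on a Zetasizer Nano ZS with the nanoparticle compositions dispersed in 1×PBS.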

[4] = pKa of nanoparticle compositions; format: physicochemical
[5] = Lipid clearance: % dose remaining in mouse liver 6 h and 24 h after administration of nanoparticle compositions; format: in vivo, CD-1 mice; settings: CD-1 mice
Text: In contrast, hEPO expression in rats induced by administration of a nanoparticle composition including a compound according to one of formulae (I), (Ia1)-(Ia6), (Ib), (II), (IIa), (III), and (IIIa) was substantially […] than that measured for MC3. […] Table 7c and 7d show additional protein expressions and clearance data from compositions with various compounds disclosed herein as compared to with MC3.

[6] = test system: luciferase (Luc) mRNA expression; experiment: Expression of Luc induced by sample formulations, whole-body bioluminescence after intravenous administration; format: in vivo; settings: mice, i.v., 0.5 mg/kg
Summary of the method: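 Mice (n=6) dosed intravenously with Luc mRNA nanoparticle formulations at 0.5 mg/kg. Whole-body bioluminescence measured at 3, 6 and 24 h. Standard MC3 formulation and PBS control run alongside.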

IP-10 = experiment: Cytokine production induced by sample formulations: IP-10; format: in vivo; settings: mice, i.v., 0.5 mpk, 6 hours, in pg/mL (unit assumed)
Summary of the method: (§1)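 Mice received nanoparticle formulations intravenously at 0.5 mpk, with standard MC3 formulation and PBS as controls. Cytokine concentrations were measured 6 hours after dosing.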

IL-6 = experiment: Cytokine production induced by sample formulations: IL-6; format: in vivo; settings: mice, i.v., 0.5 mpk, 6 hours, in pg/mL (unit assumed)
Summary of the method: as §1

[7] = Table 1, rows without footnote mark
[8] = Table 1, rows without footnote mark (lipid:DOPE:cholesterol:PEG-DMG 40:20:38.5:1.5, Luc mRNA; MC3 standard formulation)
[9] = Table 20-1, rows without footnote mark
[10] = Table 1, * lipid:DSPC:Chol:PEG-DMG 50:10:38.5:1.5

Row | EE (%) [2, 7] | PDI [3, 7] | Size (nm) [3, 8] | pKa [4, 7] | % Dose remaining 6 h CD-1 mice [5] | % Dose remaining 24 h CD-1 mice [5] | Structure (SMILES) | Total Flux Liver ([1]; Table 3, mice) | Total Flux Spleen ([1]; Table 3, mice) | Total Flux 6 hours ([6]; Table 2) | other results
1 | 53.1% | 0.180 | 89.8 nm | 6.82 | 1% | <1% | CCCCCCCCCN(CCCCCCCCC)CCN(CCCCCCCC(=O)OC)CC(=O)N1CCN(C(=O)CN(CCCCCCCCC)CCCCCCCCC)CC1 [Compound 47, Methyl 8-((2-(dinonylamino)ethyl)(2-(4-(dinonylglycyl)piperazin-1-yl)-2-oxoethyl)amino)octanoate] | 4.95E+08 | 1.42E+08 | 2.64E+09 | 
2 | 98.7% | 0.190 | 65.6 nm | 5.55 | 56% | 47% | CCCCCCCCCN(CCCCCCCCC)CCN(CCCCCCCCC)CCC1CCN(C(=O)CN(CCCCCCCCC)CCCCCCCCC)CC1 [Compound 50, 2-(Dinonylamino)-1-(4-(2-((2-(dinonylamino)ethyl)(nonyl)amino)ethyl)piperidin-1-yl)ethan-1-one] | 2.14E+07 | 1.94E+05 | 1.48E+08 | particle size, rank within the named table (in words) [3]: smallest particles

The next lines start with the compound.

Row | Structure (SMILES) | EE (%) [2, 7] | PDI [3, 7] | Size (nm) [3, 8] | pKa [4, 7] | % Dose remaining 6 h CD-1 mice [5] | % Dose remaining 24 h CD-1 mice [5] | Total Flux Liver ([1]; Table 3, mice) | Total Flux Spleen ([1]; Table 3, mice) | Total Flux 6 hours ([6]; Table 2) | other results
3 | CCCCCCCCCCCCN(CCCCCCCCCCCC)CCN(CCCCCCCCCCCC)CC(=O)N1CC2CC1CN2C(=O)CN(CCCCCCCCC)CCCCCCCCC (stereo not shown) [Compound 43, 2-((2-(Didodecylamino)ethyl)(dodecyl)amino)-1-(5-(dinonylglycyl)-2,5-diazabicyclo[2.2.1]heptan-2-yl)ethan-1-one] | 99.1% | 0.220 | 99.0 nm | 6.72 | 69% | 64% | 2.60E+08 | 4.52E+07 | 4.54E+09 | 
4 | CCCCCCCCCCCCCCN(CCCCCCCCCCCCCC)CC(=O)N1CCN(C(=O)CN(CCCCCCCCC)CCN(CCCCCCCCC)CCCCCCCCC)CC1 [Compound 51, 2-((2-(Dinonylamino)ethyl)(nonyl)amino)-1-(4-(ditetradecylglycyl)piperazin-1-yl)ethan-1-one] | 98.4% | 0.190 | 76.6 nm | 6.44 | 54% | 41% | 3.55E+09 | 2.24E+07 | 6.70E+10 | 
5 | CCCCCCCCCN(CCCCCCCC(=O)OC)CCN(CCCCCCCCC)CC(=O)N1CCN(C(=O)CN(CCCCCCCCC)CCCCCCCCC)CC1 [Compound 46, Methyl 8-((2-((2-(4-(dinonylglycyl)piperazin-1-yl)-2-oxoethyl)(nonyl)amino)ethyl)(nonyl)amino)octanoate] | 97.5% | 0.160 | 81.8 nm | 6.77 | 1% | <1% | 3.84E+08 | 4.35E+07 | 5.26E+09 | 
6 | CCCCCCCCCN(CCCCCCCCC)CCC(=O)N1CCN(C(=O)CCN(CCCCCCCCC)CCN(CCCCCCCCC)CCCCCCCCC)CC1 [Compound 52, 3-(Dinonylamino)-1-(4-(3-((2-(dinonylamino)ethyl)(nonyl)amino)propanoyl)piperazin-1-yl)propan-1-one] | 97.5% | 0.100 | 94.4 nm | 6.77 | 46% | 40% | 1.18E+10 | 8.74E+08 | 9.85E+10 | 
7 | CCCCCCCCCN(CCCCCCCCC)CCN(CCCCCCCCC)CC(=O)N1CCN(C(=O)CN(CCCCCCCCC)CCCCCCCC(=O)OC)CC1 [Compound 44, Methyl 8-((2-(4-(N-(2-(dinonylamino)ethyl)-N-nonylglycyl)piperazin-1-yl)-2-oxoethyl)(nonyl)amino)octanoate] | 89.5% | 0.190 | 94.9 nm | 6.82 | <1% | <1% | 1.11E+09 | 1.19E+08 | 1.07E+10 | 
8 | CCCCCCCCCN(CCCCCCCC(=O)OC)CCN(CCCCCCCC(=O)OC)CC(=O)N1CCN(C(=O)CN(CCCCCCCCC)CCCCCCCCC)CC1 [Compound 48, Methyl 8-((2-(4-(dinonylglycyl)piperazin-1-yl)-2-oxoethyl)(2-((8-methoxy-8-oxooctyl)(nonyl)amino)ethyl)amino)octanoate] | 79.3% | 0.099 | 111.4 nm | 6.99 | <1% | <1% | 1.04E+07 | 1.50E+07 | 1.05E+08 | 
9 | CCCCCCCCCN(CCCCCCCCC)CCN(CCCCCCCCC)CC(=O)N1CC2CC1CN2C(=O)CN(CCCCCCCCC)CCCCCCCCC (stereo not shown) [Compound 42, 2-(Dinonylamino)-1-(5-(N-(2-(dinonylamino)ethyl)-N-nonylglycyl)-2,5-diazabicyclo[2.2.1]heptan-2-yl)ethan-1-one] | 97.1% | 0.190 | 116.4 nm | 6.77 | 58% | 53% | 5.53E+09 | 2.29E+08 | 4.99E+10 | 
10 | CCCCCCCCCCCCCCN(CCO)CCN(CCCCCCCCCCCCCC)CCCCCCCCCCCCCC [Compound 20-12, 2-((2-(Ditetradecylamino)ethyl)(tetradecyl)amino)ethan-1-ol] |  |  |  |  |  |  |  |  |  | Total Flux Femur ([1]; Table 20-3, mice): 1.37E+06; Total Flux Liver ([1]; Table 20-3, mice): 3.08E+08; Total Flux Lung ([1]; Table 20-3, mice): 3.58E+06; Total Flux Spleen ([1]; Table 20-3, mice): 6.15E+07; EE (%) [2, 9]: 82.3%; PDI [3, 9]: 0.217; Size (nm) [3, 9]: 147.1 nm; particle size, rank within the named table (in words) [3]: largest particles; pKa [4, 9]: 6.58; IP-10 (IP-10; Table 20-4, formula (20-I)): 3864.5; Total Flux 3 hours ([6]; Table 20-2): 1.57E+09; Total Flux 6 hours ([6]; Table 20-2): 1.84E+09; Total Flux 24 hours ([6]; Table 20-2): 1.24E+08; IL-6 (IL-6; Table 20-4, formula (20-I)): 445.7
11 | CCCCCCCCCCCCCCN(CCCCCCCCCCCCCC)CCN1CCN(CCN(CCCCCCCCCCCC)CCN(CCCCCCCCCCCC)CCCCCCCCCCCC)CC1 [Compound 26, N^1-(2-(4-(2-(Ditetradecylamino)ethyl)piperazin-1-yl)ethyl)-N^1,N^2,N^2-tridodecylethane-1,2-diamine] |  |  |  |  |  |  | 2.35E+06 | 2.30E+05 | 1.04E+07 | Total Flux Lung ([1]; Table 3, mice): 3.49E+04; EE (%) [2, 10]: 84.9%; Size (nm) ([3]; Table 1, * formulated with lipid:DSPC:Chol:PEG-DMG 50:10:38.5:1.5): 74.2 nm; PDI [3, 10]: 0.112; pKa [4, 10]: 6.19; IP-10 (IP-10; Table 4): 175; Total Flux 3 hours ([6]; Table 2): 1.65E+07; Total Flux 24 hours ([6]; Table 2): 2.75E+06; IL-6 (IL-6; Table 4): 17
12 | CCCCC/C=C\C/C=C\CCCCCCCCN(CCO)CCN(CCCCCCCCCCCC)CCCCCCCCCCCC [Compound 20-25, 2-((2-(Didodecylamino)ethyl)((9Z,12Z)-octadeca-9,12-dien-1-yl)amino)ethan-1-ol] |  |  |  |  |  |  |  |  |  | Total Flux Femur ([1]; Table 20-3, mice): 3.13E+05; Total Flux Liver ([1]; Table 20-3, mice): 1.88E+08; Total Flux Lung ([1]; Table 20-3, mice): 7.85E+05; Total Flux Spleen ([1]; Table 20-3, mice): 4.16E+06; EE (%) [2, 9]: 98.4%; PDI [3, 9]: 0.171; Size (nm) [3, 9]: 71.7 nm; pKa [4, 9]: 6.23; IP-10 (IP-10; Table 20-4, formula (20-I)): 188.0; Total Flux 3 hours ([6]; Table 20-2): 1.16E+09; Total Flux 6 hours ([6]; Table 20-2): 1.78E+09; Total Flux 24 hours ([6]; Table 20-2): 3.82E+07; IL-6 (IL-6; Table 20-4, formula (20-I)): 20.6
